Experimental data taken from patent EP0384380A2, “Novel peptide derivatives and their pharmaceutical use” (JAPAN TOBACCO INC., priority 1989, dated 1990).
Read-outs that look alike come from different tables or passages of the source.

Key:
Type in all cases: in vivo
ICR male mice [1] = experiment: Anti-chlorpromazine action (locomotor stimulant action); conditions: SC, mice given chlorpromazine HCl 5 mg/kg s.c., test compound one hour later, estimated from regression line; for ED (3000 locomotor counts): Mus musculus, 2 h, read-out: Concentration of test compound necessary for inducing 3000 count of automatism quantity in 2 hours
Procedure: Anti-chlorpromazine action (Locomotor stimulant action)
ICR male mice weighing 35 - 40 g (four animals per group) were subcutaneously administered with chlorpromazine HCI at the dose of 5 mg/kg and immediately set in the automatic locomotor-measuring apparatus (AUTOMEX). One hour later, the test compound dissolved in saline was subcutaneously administered, and the locomotor activity was measured every 15 minutes for 120 minutes. The total locomotor activity during the period of 120 minutes was calculated and the regression line was estimated based on the method of least squares, from which the amount of the test compound necessary for inducing 3000 locomotor-count was estimated (Table 2).

Wistar male rats = experiment: Flexor reflex in spinalized rats; parameters: key to Area below the reflex amplitude linking line: area under % amplitude vs. time line over 60 min (pre-dose = 100%); conditions: pre-dose amplitude = 100%; for response vs control in vivo at 0.1 mg/kg / response vs control in vivo at 0.3 mg/kg: Rattus norvegicus; for Area below the reflex amplitude linking line: covering 60 minutes
Procedure: Flexor reflex in spinalized rats
Wistar male rats (weighing 450 - 520 g) were anesthetized with ether, and the cervical part of spinal cord was exposed, into which a tracheal cannula was inserted. The vagus nerves were severed bilaterally at the cervical region. Thereafter, the cervical vertebra C1 segment was transected, and rapidly, artificial ventilation was given with the use of an artificial respirator (Shinano Factory 60 rpm. 4 ml/stroke). The rat was placed on a thermostated apparatus in which water thermostated at 37 C was circulated and fixed thereto at forelimbs, right hindlimb, tooth and tail. A venous cannula was inserted into the femoral vein in the right hindlimb and two needle electrodes were subcutaneously inserted into the left skin of the toe, and a piece of thread was attached to the limb with the edge of the thread bonded to a force-displacement - transducer. Tension of about 5 g was applied to the thread. Through the elctrodes, electric stimuli of 50 - 100 V were applied once per 30 seconds. The flexor reflex was recorded on the polygraph via a force-displacement transducer. After the reaction became constant in about one-hours' lapse for stabilization, the test compound dissolved in saline was intravenously administered. Thereafter, the reaction was recorded for 1 hour. In the data, taking the mean of the three reactions just before administration of the test compound for 100%, the reflex amplitude at 1-, 3-, 5-, 8-, 10-, 15-, 20-, 30-, 40-, 50- and 60- minutes' lapse after administration of the test compound were calculated. In Table 3, there are shown calculated area below the straight line linking the obtained reflex amplitude at the respective above-mentioned time covering 60 minutes in the case of administration of each test compounds at the dose of 0.1 mg/kg, and the reflex amplitude at 10- and 60-minutes' lapse after administration (Table 3).

ICR male mice [2] = experiment: Anti-reserpine action (antagonistic action against hypothermia); conditions: SC, mice given reserpine 5 mg/kg s.c., test compound 3 or 3.5 hours later, estimated from regression line; for ED (1 degC rise in body temperature): Mus musculus, 2 h, read-out: Concentration of test compound necessary for raising body temperature by 1 °C on the average for 120 minutes
Procedure: Anti-reserpine action (Antagonistic action against hypothermia)
ICR male mice weighing 35 - 40 g were subcutaneously administered with reserpine at the dose of 5 mg/kg. About 2 hours later, each of the mice was held by a mouse-holder, and a body temperature sensor was intrarectally inserted. Thereafter, the body temperature was automatically measured every 10 minutes. The test compound dissolved in saline was subcutaneously administered 3 or 3.5 hours after administration of reserpine. After the administration of the test compound, the body temperature was measured every 10 minutes over the period of 120 minutes. The area below the body temperature line during the period was calculated, from which the regression line was estimated based upon least square method, and estimated was the amount of the test compound necessary for raising the body temperature by 1 °C on the average for 120 minutes from that just before the administration of the test compound (Table 1).

[3] = 10 min, intravenous administration at the dose of 0.1 mg/kg, read-out: Reflex amplitude (%) 10 min. after
[4] = 1 h, intravenous administration at the dose of 0.1 mg/kg, read-out: Reflex amplitude (%) 60 min. after
[5] = intravenous administration at the dose of 0.1 mg/kg
[6] = 10 min, intravenous administration at the dose of 0.3 mg/kg (footnote *), read-out: Reflex amplitude (%) 10 min. after
[7] = intravenous administration at the dose of 0.3 mg/kg (footnote *)

Row | SMILES | ED (3000 locomotor counts) (ICR male mice [1]) [mg/kg] | response vs control in vivo at 0.1 mg/kg (Wistar male rats; [3]) [%] | response vs control in vivo at 0.1 mg/kg (Wistar male rats; [4]) [%] | Area below the reflex amplitude linking line (Wistar male rats; [5]) | ED (1 degC rise in body temperature) (ICR male mice [2]) [mg/kg] | response vs control in vivo at 0.3 mg/kg (Wistar male rats; [6]) [%] | Area below the reflex amplitude linking line (Wistar male rats; [7]) | response vs control in vivo at 0.3 mg/kg (Wistar male rats; 1 h, intravenous administration at the dose of 0.3 mg/kg (footnote *), read-out: Reflex amplitude (%) 60 min. after) [%] | Concentration of test compound necessary for inducing 3000 count of automatism quantity in 2 hours (ICR male mice [1]) [mg/kg] | Reflex amplitude (%) 10 min. after (Wistar male rats; [5]) [%] | Reflex amplitude (%) 60 min. after (Wistar male rats; [5]) [%] | Concentration of test compound necessary for raising body temperature by 1 °C on the average for 120 minutes (ICR male mice [2]) [mg/kg]
1 | C[C@H]1CC(=O)N[C@@H]1C(=O)N[C@@H](Cc1c[nH]cn1)C(=O)N1CSC[C@H]1C(N)=O [Compound 4, 3-[N^α-(trans-3-Methylpyroglutamyl)-L-histidyl]-L-thiazolidine-4-carboxamide] | 0.63 | 143 | 164 | 9404 | 0.34 | – | – | – | – | – | – | –
2 | C[C@H]1CC(=O)C[C@H]1C(=O)N[C@@H](Cc1c[nH]cn1)C(=O)N1CCC[C@H]1C(N)=O (mixture of isomers) [Compound 19, N^α-(cis-2-Methyl-4-oxocyclopentanecarbonyl)-L-histidyl-L-prolinamide] | 0.54 | 138 | – | 11860 | 0.14 | 250 | 19114 | – | – | – | – | –
3 | NC(=O)[C@@H]1CCCN1C(=O)[C@H](Cc1c[nH]cn1)NC(=O)[C@@H]1CCC(=O)C1 [Compound 16, N^a-[(1 R)-3-Oxocyclopentanecarbonyl]-L-histidyl-L-prolinamide] | 0.88 | 152 | – | 12016 | 0.12 | – | – | – | – | – | – | –
4 | C[C@H]1CC(=O)N[C@@H]1C(=O)N[C@@H](Cc1c[nH]cn1)C(=O)N1CCC[C@H]1C(N)=O [Compound 2, N^α-(trans-3-Methylpyroglutamyl)-L-histidyl-L-prolinamide] | 12.9 | 126 | – | 7077 | 1.11 | – | – | – | – | – | – | –
5 | C[C@@H]1CC(=O)O[C@@H]1C(=O)N[C@@H](Cc1c[nH]cn1)C(=O)N1CCC[C@H]1C(N)=O [Compound 5, N^α-[(2S,3R)-Tetrahydro-3-methyl-5-oxo-2-furancarbonyl]-L-histidyl-L-prolinamide] | 0.7 | 132 | – | 9221 | 0.12 | – | – | – | – | – | – | –
6 | C[C@@H]1CC(=O)N[C@@H]1C(=O)N[C@@H](Cc1c[nH]cn1)C(=O)N1CSC[C@H]1C(N)=O [Compound 3, 3-[N^α-(cis-3-Methylpyroglutamyt)-L-histidyl]-L-thiazolidine-4-carboxamide] | 0.47 | 190 | 278 | 13811 | 0.2 | – | – | – | – | – | – | –
7 | C[C@@H]1CC(=O)C[C@H]1C(=O)N[C@@H](Cc1c[nH]cn1)C(=O)N1CCC[C@H]1C(N)=O (mixture of isomers) [Compound 20, N^α-(trans-2-Methyl-4-oxocyclopentanecarbonyl)-L-histidyl-L-prolinamide] | 1.3 | 105 | – | 6317 | 0.27 | 129 | 10355 | – | – | – | – | –
8 | NC(=O)C1CCCN1C(=O)C(Cc1c[nH]cn1)NC(=O)C1CCC(=O)O1 (centres unmarked) [DN1417, reference compound] | 4.34 | – | – | – | 2.06 | 114 | 8152 | 163 | – | – | – | –
9 | C[C@@H]1CC(=O)N[C@@H]1C(=O)N[C@@H](Cc1c[nH]cn1)C(=O)N1CCC[C@H]1C(N)=O [Compound 1, N^α-(cis-3-Methylpyroglutamyt)-L-histidyl-L-prolinamide] | 0.51 | 159 | – | 12970 | 0.3 | – | – | – | – | – | – | –
10 | CC1(C)CC(=O)CC1C(=O)N[C@@H](Cc1c[nH]cn1)C(=O)N1CCC[C@H]1C(N)=O (stereo partly drawn) [Compound 21, N^α-(2,2-Dimethyl-4-oxocyclopentanecarbonyl)-L-histidyl-L-prolinamide] | 0.83 | 115 | – | 7186 | 0.18 | 170 | 14294 | – | – | – | – | –
11 | NC(=O)[C@@H]1CCCN1C(=O)[C@H](Cc1c[nH]cn1)NC(=O)[C@H]1NC(=O)C[C@@H]1c1ccccc1 (relative stereo) [Compound 10, N^a-(trans-3-Phenylpyroglutamyl)-L-histidyl-L-prolinamide] | – | – | – | 16593 | – | – | – | – | 1.89 | 242.7 | 329.2 | 0.53
12 | NC(=O)[C@@H]1CCCN1C(=O)[C@H](Cc1c[nH]cn1)NC(=O)C1CCC(=O)C1 (stereo partly drawn) [Compound 13, N^α-(3-Oxocyclopentanecarbonyl)-L-histidyl-L-prolinamide] | 1.03 | 110 | – | 8572 | 0.71 | – | – | – | – | – | – | –
13 | NC(=O)[C@@H]1CCCN1C(=O)[C@H](Cc1c[nH]cn1)NC(=O)[C@H]1NC(=O)C[C@H]1c1ccccc1 (relative stereo) [Compound 11, N^α-(cis-3-Phenylpyroglutamyl)-L-histidyf-L-prolinamide] | – | – | – | 11321 | – | – | – | – | 1.89 | 140.4 | 240.8 | 0.28
14 | NC(=O)[C@@H]1CCCN1C(=O)[C@H](Cc1c[nH]cn1)NC(=O)[C@@H]1CCC(=O)N1 [TRH, L-pyroglutamyl-L-histidyl-L-prolinamide, reference compound] | 6.82 | 118 | – | – | – | – | – | – | – | – | – | –
